{
  "source": "paper PMC4033659",
  "about": "(Journal of Medicinal Chemistry, 2014)",
  "assay": "In vivo PK in rats after ip administration",
  "details": "rat, ip 10 mg/kg, at Tmax 30 min",
  "data": [
    {"smiles": "COc1ccc(C(=O)O)cc1OCCCCOc1ccc(C(=O)CC(C)(C)C)c(O)c1C", "note": "[Compound 72, 3-(4-(4-(3,3-Dimethylbutanoyl)-3-hydroxy-2-methylphenoxy)butoxy)-4-methoxybenzoic Acid]", "values": [
      {"measurement": "plasma (maximum concentration)", "result": "2.44 ± 2.19", "unit": "µM"}
    ]},
    {"smiles": "Cc1c(OCCCCOc2ccc(F)c(C(=O)O)c2)ccc(C(=O)CC(C)(C)C)c1O", "note": "[Compound 75, 5-(4-(4-(3,3-Dimethylbutanoyl)-3-hydroxy-2-methylphenoxy)butoxy)-2-fluorobenzoic Acid]", "values": [
      {"measurement": "brain (maximum concentration)", "result": "0.22 ± 0.04", "unit": "µM"},
      {"measurement": "plasma (maximum concentration)", "result": "6.52 ± 0.54", "unit": "µM"}
    ]},
    {"smiles": "COc1cc(C(=O)O)ccc1OCCCCOc1ccc(C(=O)CC(C)C)c(O)c1C", "note": "[Compound 44, 4-{4-[3-Hydroxy-2-methyl-4-(3-methylbutanoyl)phenoxy]butoxy}-3-methoxybenzoic Acid]", "values": [
      {"measurement": "brain (maximum concentration)", "result": "0.23 ± 0.10", "unit": "µM"},
      {"measurement": "plasma (maximum concentration)", "result": "10.57 ± 2.52", "unit": "µM"}
    ]},
    {"smiles": "Cc1c(OCCCCOc2ccc(F)c(C(=O)O)c2)ccc(C(=O)C(C)C)c1O", "note": "[Compound 65, 2-Fluoro-5-(4-(3-hydroxy-4-isobutyryl-2-methylphenoxy)butoxy)benzoic Acid]", "values": [
      {"measurement": "plasma (maximum concentration)", "result": "5.44 ± 2.92", "unit": "µM"}
    ]},
    {"smiles": "CCCC(=O)c1ccc(OCCCCOc2cc(C(=O)O)ccc2OC)c(C)c1O", "note": "[Compound 68, 3-(4-(4-Butyryl-3-hydroxy-2-methylphenoxy)butoxy)-4-methoxybenzoic Acid]", "values": [
      {"measurement": "plasma (maximum concentration)", "result": "2.18 ± 0.58", "unit": "µM"}
    ]}
  ]
}
